Measured values published in ChEMBL document CHEMBL1126186 (J Med Chem, 1992).
pKi: −log10 of the molar value.

target: Glutamate receptor ionotropic, NMDA 1 (Rattus norvegicus, UniProt P35439); test: Compound was evaluated for its ability to displace [3H]TCP from PCP N-methyl-D-aspartate glutamate receptor in rat brain; type: tissue-based

Structure (SMILES) | pKi
c1ccc([C@]2(N3CCCCC3)C[C@H]3C[C@H]3C2)cc1 | 6.19
c1ccc([C@@]2(N3CCCCC3)C[C@H]3C[C@H]3C2)cc1 | 6.15
c1ccc([C@]2(N3CCCCC3)CC[C@@H]3C[C@@H]32)cc1 | 4.54
c1ccc([C@@]2(N3CCCCC3)CC[C@H]3C[C@H]32)cc1 | 5.09
c1ccc([C@]2(N3CCCCC3)CC[C@H]3C[C@H]32)cc1 (racemic) | 6.24
c1ccc(C2(N3CCCCC3)CCCCC2)cc1 [PHENCYCLIDINE] | 7.19
